Measurements as given in patent US20110098180A1, “Herbicide-Resistant Plants, And Polynucleotides And Methods For Providing Same” (United States Department of Agriculture, priority 2002, published 2011).

Key:
[1] = target: hydrilla PDS Arg^304 → Serine (Hydrilla verticillata, UniProt Q66PY0, R304S); test: Cross resistance to bleaching herbicides, in vitro PDS inhibition, non-His-tagged (Table 2); assay type: biochemical; settings: Serine at 304; construct in frame with LacZalpha-ccdB, non-His-tagged; read-out: I50
Sequence of hydrilla PDS Arg^304 → Serine (Q66PY0 1-580 R304S): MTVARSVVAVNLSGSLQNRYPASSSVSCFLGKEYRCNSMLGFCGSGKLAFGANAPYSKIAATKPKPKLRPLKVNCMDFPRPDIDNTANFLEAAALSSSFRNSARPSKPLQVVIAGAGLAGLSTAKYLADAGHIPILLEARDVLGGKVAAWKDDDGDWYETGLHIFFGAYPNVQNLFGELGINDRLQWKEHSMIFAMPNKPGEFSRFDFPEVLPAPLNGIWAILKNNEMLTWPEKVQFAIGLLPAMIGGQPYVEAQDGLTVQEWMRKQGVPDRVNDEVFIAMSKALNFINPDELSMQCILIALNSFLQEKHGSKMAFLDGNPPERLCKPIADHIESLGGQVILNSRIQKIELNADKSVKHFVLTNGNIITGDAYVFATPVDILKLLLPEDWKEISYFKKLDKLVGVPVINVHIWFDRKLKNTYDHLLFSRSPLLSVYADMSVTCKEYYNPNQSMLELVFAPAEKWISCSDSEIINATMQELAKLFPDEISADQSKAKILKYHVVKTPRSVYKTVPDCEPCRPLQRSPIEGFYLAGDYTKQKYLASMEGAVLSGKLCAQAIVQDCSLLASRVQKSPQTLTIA
Protocol: The expression constructs in Table 2 were derived from an original clone of the susceptible PDS gene from Hydrilla and then the Arg^304 was mutated to the listed amino acid. Expression was under the control of the lac promoter but in frame with the initiation codon of the LacZalpha-ccdB gene in the pCR4-TOPO vector (Invitrogen Inc., CA, Cat. #K4575-01).
All mutagenesis was performed, unless stated otherwise, using the TOPO-vector containing the wildtype (H4) PDS-sequence, which was extracted from an overnight culture with the Qiagen Plasmid Prep Kit as described above. The amount of the extracted plasmid was diluted to 10 ng/μl and used as template in a mutagenesis-procedure using the QuikChange Site-directed Mutagenesis Kit (Stratagene, Calif., #200518). The design of the mutagenesis-primers was conducted according to the manufacturers protocol to enable the specific change of Arg^304-codon to code for the desired amino acid. Primers (purchased from MWG-Biotech) and their introduced amino acid change are listed below with the changed codon underlined:
The reactions were performed according to the manufacturers protocol. Reactions were set up in MicroAmp-tubes on ice with 38 μl ddH2O, 5 μl 10× reaction buffer, 2 μl plasmid (10 ng/μl), 1.25 μl forward-mutagenesis primer (100 ng/μl), 1.25 μl of reverse mutagenesis primer (100 ng/μl), 1 μl dNTP-mix and 1 μl PfuTurboDNA polymerase (2.5 U/μl). The reactions were placed in a PE 9700 thermal cycler and heated to 95° C. for 30 sec followed by 12 rounds at 95° C. for 30 sec, 55° C. for 1 min and 68° C. for 12 min. The PCR was followed by a DpnI-digestion and transformation in XL1-Blue supercompetent cells as described in the manual. 4-6 resulting colonies were grown overnight in LB-medium with kanamycin and plasmid DNA was isolated as described above. The plasmid was used as template for sequencing with M13 and internal PDS-primers as described above on a LiCOR-system. Sequences were assembled and analyzed using Seqman. Introduced mutations were identified and plasmids carrying the desired mutation(s) were transferred into competent TOP10-cells, using the transformation protocol from the TOPO TA Cloning Kit. Resulting colonies were grown overnight in Wu-broth with kanamycin, aliquoted and stored at −80° C. until further use. 1 ml of Wu-cultures was used to start 1-L LB-cultures with kanamycin as described before, to express active PDS-enzyme for testing as described.
Phytoene desaturase activity and its inhibition by herbicides was determined using an in vitro system using components derived from the in vivo production of phytoene and phytoene desaturase proteins. All mutations described in Examples 3 and 4 were tested. […] The clones were used for the heterologous expression of Hydrilla-PDS-enzyme. In particular, bacterial cultures were grown from single colonies overnight in Wu-broth (6.27 g/L K2HPO4, 1.8 g/L KH2PO4, 0.5 g/L Na-citrate, 0.9 g/L (NH4)2SO4, 10 g/L tryptone, 5 g/L yeast extract, 10 g/L NaCl, 44 ml/L glycerol, 0.1 mM MgSO4, pH 7.2) with kanamycin. 1-mL was aliquoted in centrifuge tube and stored at −80° C. For expression, 1 L LB-medium with kanamycin was inoculated with 1-mL Wu-culture and grown for 24 h at 37° C. to stationary phase with shaking at 200 rpm. The cells were collected by centrifugation at 2000×g. All of the following steps were done at 4° C. unless otherwise noted. Active soluble PDS enzyme was extracted by lysing the transformed E. coli cells using a French Press at 20,000 psi in assay buffer consisting of 100 mM Tris-HCl, pH 7.2, 10 mM magnesium-chloride, 0.1 mM NADP, 0.1 mM FAD, 10 mM cysteine, 5 mM DTT, 1 mM aminocaproic acid, and 1 μg/ml leupeptin. The soluble fraction containing PDS activity was obtained by centrifugation for 10 min at 1200×g. After 24 h they were centrifuged down and used in PDS enzyme activity assays as described below.

[2] = system: Arabidopsis thaliana transformed with Hydrilla PDS constructs; test: Herbicide resistance of transformed Arabidopsis T1 seedlings; assay type: in vivo
Source text: Binary vectors for pds expression in plants included the 1-323 by upstream of the beginning of the putative mature protien, which is assumed to encode for chloroplast signal peptide/s. pHy4ATG5 was mutagenized at the amino acid 304 of pds to replace Arginine by Histidine, Threonine, Serine, or Cysteine, using the QuickChange™ Site-Directed Mutagenesis Kit of Stratagene (La Jolla, Calif.) and the same mutagenesis primers used for p3ORF-ATG indicated in the previous section. The resulting plasmids in this case were pHy4His, pHy4Thr, pHy4Ser and pHy4Cys. A 1.8 kb fragment between the TOPO4 SpeI site and the pds SspI site containing the pds gene was cloned into pCAMBIA1303 (CAMBIA, Canberra, Australia) SpeI-Pm1I sites (SspI and PmlI are compatible) replacing the 2.5 kb gus:mgfp; the resulting plasmid was designated pPDATG1303. The same strategy was used for each of the clones containing amino acid changes, generating plasmids pPDHIS1303, pPDTHR1303, pPDSER1303 and pPDCYS1303. The selectable marker in these constructs is the hygromycin phosphotransferase gene (hptll) for resistance to hygromycin in plants.
Arabidopsis thaliana ecotype Columbia (Col-0) was transformed with Agrobacterium using the floral dip method (Clough, S. J. and Bent, A. F. (1998) Floral dip: a simplified method for Agrobacterium-mediated transformation of Arabidopsis thaliana. The Plant Journal 16(6):735-743). Plants were grown at 21° C. with 16 h/8 h day and night until flowering and continuous light after inoculation (plants inoculated with Agrobacterium were denominated T0 plants). Selection of T1 (seeds produced by T0 plants) seedlings was performed on Petri plates with half-strength Murashige and Skoog (MS) medium (Murashige, T. and Skoog, F. (1962) A revised medium for rapid grOwth and bioassays with tobacco tissue cultures. Physiologia plantarum 15:473-497) supplemented with 1% sucrose, 0.2% phytagel and 300 μg/ml cefotaxime. […]
DNA was extracted according to Dilworth and Frey (2000)foreign genes detected by PCR. […]

Structure (SMILES)	IC50 [1] [µM]	confirmed transformed plants resistant to the herbicide ([2]; construct pPDATG1303)	confirmed transformed plants resistant to the herbicide ([2]; construct pPDSER1303)	confirmed transformed plants resistant to the herbicide ([2]; construct pPDTHR1303)
CCC(Oc1ccc(F)c(C(F)(F)F)c1)C(=O)NCc1ccccc1 (centres unmarked) [Beflubutamid]	2.6	–	–	–
O=C(Nc1ccc(F)cc1F)c1cccnc1Oc1cccc(C(F)(F)F)c1 [Diflufenican]	1.1	–	–	–
O=C1C(Cl)C(CCl)CN1c1cccc(C(F)(F)F)c1 (centres unmarked) [Fluorochloridone]	23	–	–	–
CNC1=C(c2cccc(C(F)(F)F)c2)C(=O)C(c2ccccc2)O1 (centres unmarked) [Flurtamone]	5.9	–	–	–
CNc1cnn(-c2cccc(C(F)(F)F)c2)c(=O)c1Cl [Norflurazon]	54.9	1	3	1
